Target: T1, Bcl-2-like protein 2 (Homo sapiens, UniProt Q92843)
T1 sequence (Q92843 whole entry): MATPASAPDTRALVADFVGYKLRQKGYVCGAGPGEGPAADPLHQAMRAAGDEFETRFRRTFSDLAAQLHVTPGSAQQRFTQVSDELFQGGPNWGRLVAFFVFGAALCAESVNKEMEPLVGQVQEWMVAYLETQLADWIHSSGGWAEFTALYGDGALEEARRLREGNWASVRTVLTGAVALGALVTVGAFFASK
Test: Inhibition of 5-carboxyfluorescein-labeled Flu-Bak-BH3 peptide binding to Bcl-w by fluorescence polarization assay

SMILES	Ki [µM]
CN(CC(=O)Nc1ccc(N2CCCCC2)c([N+](=O)[O-])c1)C(=O)c1ccc(-c2ccccc2)cc1	10.8
CN(CC(=O)Nc1ccc(NC23CC4CC(CC(C4)C2)C3)c([N+](=O)[O-])c1)C(=O)c1ccc(-c2ccccc2)cc1	9.43
CN(CC(=O)Nc1ccc(N2CCSCC2)c([N+](=O)[O-])c1)C(=O)c1ccc(-c2ccccc2)cc1	13
